From ChEMBL document CHEMBL4831500, “Discovery of first-in-class imidazothiazole-based potent and selective ErbB4 (HER4) kinase inhibitors” (Eur J Med Chem, 2021)

Assays:
MOLT-4 = assay: Antiproliferative activity against human MOLT-4 cells assessed as cell growth inhibition measured after 48 hrs by SRB assay; format: functional, cell-based; settings: MOLT-4, 48 h
HCC 2998 = assay: Antiproliferative activity against human HCC 2998 cells assessed as cell growth inhibition at 10 uM measured after 48 hrs by SRB assay relative to control; format: functional
U-251 = assay: Antiproliferative activity against human U-251 cells assessed as cell growth inhibition measured after 48 hrs by SRB assay; format: functional, cell-based; settings: U-251, 48 h
WI-38 = assay: Cytotoxicity against human WI-38 cells assessed as cell growth inhibition measured after 48 hrs by SRB assay; format: cell-based; settings: WI-38, 48 h
OVCAR-4 = assay: Antiproliferative activity against human OVCAR-4 cells assessed as cell growth inhibition measured after 48 hrs by SRB assay; format: functional, cell-based; settings: OVCAR-4, 48 h
NCI-H522 = assay: Antiproliferative activity against human NCI-H522 cells assessed as cell growth inhibition measured after 48 hrs by SRB assay; format: functional, cell-based; settings: NCI-H522, 48 h
[1] = target: T1, Receptor tyrosine-protein kinase erbB-4 (Homo sapiens, UniProt Q15303); assay: Inhibition of ErbB4 (unknown origin) at 10 uM incubated for 40 mins in presence of Mg/ATP mix by [gamma p33]-ATP based scintillation counting method relative to control
[2] = system: Serine/threonine-protein kinase B-raf (Homo sapiens), P15056 [V600E]; assay: Inhibition of BRAF V600E mutant (unknown origin) at 10 uM incubated for 40 mins in presence of Mg/ATP mix by [gamma p33]-ATP based scintillation counting method relative to control
[3] = target: T1, Receptor tyrosine-protein kinase erbB-4; assay: Inhibition of ErbB4 (unknown origin) incubated for 40 mins in presence of Mg/ATP mix by [gamma p33]-ATP based scintillation counting method
SK-MEL-5 = assay: Antiproliferative activity against human SK-MEL-5 cells assessed as cell growth inhibition at 10 uM measured after 48 hrs by SRB assay relative to control; format: functional
[4] = target: T2, Mitogen-activated protein kinase 10 (Homo sapiens, UniProt P53779); assay: Inhibition of JNK3 (unknown origin) incubated for 40 mins in presence of Mg/ATP mix by [gamma p33]-ATP based scintillation counting method
[5] = target: T2, Mitogen-activated protein kinase 10; assay: Inhibition of JNK3 (unknown origin) at 10 uM incubated for 40 mins in presence of Mg/ATP mix by [gamma p33]-ATP based scintillation counting method relative to control
Homo sapiens = species on record: Homo sapiens; assay: Selectivity ratio of IC50 for inhibition of JNK3 (unknown origin) to IC50 for inhibition of ErbB4 (unknown origin); settings: dose 10.0 µM, time 40.0 min
MDA-MB-468 = assay: Antiproliferative activity against human MDA-MB-468 cells assessed as cell growth inhibition at 10 uM measured after 48 hrs by SRB assay relative to control; format: functional
[6] = target: T1, Receptor tyrosine-protein kinase erbB-4; assay: Inhibition of ErbB4 in human T47D cells assessed as suppression of neuregulin 1-induced autophosphorylation incubated for 90 mins by sandwich ELISA; format: cell-based
[7] = target: Receptor tyrosine-protein kinase erbB-2 (Homo sapiens) (UniProt P04626); assay: Inhibition of ErbB2 (unknown origin) at 10 uM incubated for 40 mins in presence of Mg/ATP mix by [gamma p33]-ATP based scintillation counting method relative to control
Sequence of Receptor tyrosine-protein kinase erbB-2 (Homo sapiens) (P04626 whole entry): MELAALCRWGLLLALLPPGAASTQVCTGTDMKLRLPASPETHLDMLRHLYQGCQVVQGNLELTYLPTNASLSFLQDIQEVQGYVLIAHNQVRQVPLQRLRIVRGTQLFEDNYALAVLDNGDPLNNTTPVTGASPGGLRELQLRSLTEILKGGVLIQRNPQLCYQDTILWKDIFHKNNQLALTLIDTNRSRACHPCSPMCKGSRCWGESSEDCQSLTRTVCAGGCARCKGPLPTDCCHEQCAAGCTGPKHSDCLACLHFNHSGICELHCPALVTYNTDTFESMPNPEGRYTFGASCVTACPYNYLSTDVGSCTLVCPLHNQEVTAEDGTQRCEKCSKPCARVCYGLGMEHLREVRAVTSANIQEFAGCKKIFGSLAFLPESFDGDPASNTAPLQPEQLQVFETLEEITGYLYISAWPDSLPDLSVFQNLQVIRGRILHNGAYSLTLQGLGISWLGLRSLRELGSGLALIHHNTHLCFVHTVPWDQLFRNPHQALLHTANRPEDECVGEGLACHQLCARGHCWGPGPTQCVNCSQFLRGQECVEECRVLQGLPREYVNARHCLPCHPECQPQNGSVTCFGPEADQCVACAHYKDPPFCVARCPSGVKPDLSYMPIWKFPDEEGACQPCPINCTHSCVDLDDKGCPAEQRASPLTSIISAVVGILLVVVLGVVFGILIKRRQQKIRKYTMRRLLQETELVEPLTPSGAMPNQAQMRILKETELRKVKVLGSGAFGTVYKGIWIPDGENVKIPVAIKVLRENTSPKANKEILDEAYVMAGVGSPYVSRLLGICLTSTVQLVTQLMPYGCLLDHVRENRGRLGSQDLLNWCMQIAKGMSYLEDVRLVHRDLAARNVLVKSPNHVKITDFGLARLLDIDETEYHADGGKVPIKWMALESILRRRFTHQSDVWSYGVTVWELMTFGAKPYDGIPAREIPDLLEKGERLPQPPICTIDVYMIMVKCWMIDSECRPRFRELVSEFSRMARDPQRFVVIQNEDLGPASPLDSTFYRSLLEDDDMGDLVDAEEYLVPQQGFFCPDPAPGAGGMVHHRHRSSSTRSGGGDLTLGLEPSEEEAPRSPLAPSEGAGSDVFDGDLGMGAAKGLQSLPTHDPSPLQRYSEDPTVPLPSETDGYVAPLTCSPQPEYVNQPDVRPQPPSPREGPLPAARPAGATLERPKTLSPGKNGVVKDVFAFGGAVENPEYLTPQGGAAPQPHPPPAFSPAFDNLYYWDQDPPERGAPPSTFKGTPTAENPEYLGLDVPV

T1 sequence (Q15303 whole entry): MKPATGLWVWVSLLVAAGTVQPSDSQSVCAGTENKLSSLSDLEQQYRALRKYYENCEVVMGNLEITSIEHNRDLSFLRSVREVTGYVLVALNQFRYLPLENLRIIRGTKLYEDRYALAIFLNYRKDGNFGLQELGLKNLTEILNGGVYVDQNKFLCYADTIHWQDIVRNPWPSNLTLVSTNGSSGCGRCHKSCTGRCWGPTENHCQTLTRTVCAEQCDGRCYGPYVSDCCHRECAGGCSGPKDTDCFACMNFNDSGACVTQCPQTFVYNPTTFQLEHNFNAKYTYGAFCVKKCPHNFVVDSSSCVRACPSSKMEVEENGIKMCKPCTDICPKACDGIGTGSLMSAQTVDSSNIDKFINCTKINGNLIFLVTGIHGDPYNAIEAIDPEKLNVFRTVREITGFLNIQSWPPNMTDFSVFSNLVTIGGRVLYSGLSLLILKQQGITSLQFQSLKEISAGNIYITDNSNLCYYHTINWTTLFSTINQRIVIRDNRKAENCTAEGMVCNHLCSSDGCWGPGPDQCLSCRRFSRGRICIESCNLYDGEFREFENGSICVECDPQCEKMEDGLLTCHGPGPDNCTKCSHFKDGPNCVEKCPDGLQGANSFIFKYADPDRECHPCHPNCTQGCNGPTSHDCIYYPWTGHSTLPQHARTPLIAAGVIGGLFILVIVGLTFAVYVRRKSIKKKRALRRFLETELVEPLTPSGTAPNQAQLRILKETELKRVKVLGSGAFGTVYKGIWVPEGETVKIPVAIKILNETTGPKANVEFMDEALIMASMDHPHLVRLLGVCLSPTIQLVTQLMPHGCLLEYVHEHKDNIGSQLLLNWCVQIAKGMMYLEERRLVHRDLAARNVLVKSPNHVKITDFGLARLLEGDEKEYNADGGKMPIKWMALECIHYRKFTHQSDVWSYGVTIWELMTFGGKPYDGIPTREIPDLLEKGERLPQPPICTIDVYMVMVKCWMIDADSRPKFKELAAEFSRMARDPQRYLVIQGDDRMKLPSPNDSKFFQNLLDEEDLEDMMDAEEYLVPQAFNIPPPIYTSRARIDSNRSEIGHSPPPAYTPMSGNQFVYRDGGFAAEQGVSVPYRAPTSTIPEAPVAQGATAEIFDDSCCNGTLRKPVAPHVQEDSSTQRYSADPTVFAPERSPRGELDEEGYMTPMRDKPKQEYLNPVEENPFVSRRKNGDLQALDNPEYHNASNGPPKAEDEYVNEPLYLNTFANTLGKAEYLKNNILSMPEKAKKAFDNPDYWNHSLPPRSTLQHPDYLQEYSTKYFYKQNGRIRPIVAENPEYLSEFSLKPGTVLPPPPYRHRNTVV
T2 sequence (P53779 whole entry): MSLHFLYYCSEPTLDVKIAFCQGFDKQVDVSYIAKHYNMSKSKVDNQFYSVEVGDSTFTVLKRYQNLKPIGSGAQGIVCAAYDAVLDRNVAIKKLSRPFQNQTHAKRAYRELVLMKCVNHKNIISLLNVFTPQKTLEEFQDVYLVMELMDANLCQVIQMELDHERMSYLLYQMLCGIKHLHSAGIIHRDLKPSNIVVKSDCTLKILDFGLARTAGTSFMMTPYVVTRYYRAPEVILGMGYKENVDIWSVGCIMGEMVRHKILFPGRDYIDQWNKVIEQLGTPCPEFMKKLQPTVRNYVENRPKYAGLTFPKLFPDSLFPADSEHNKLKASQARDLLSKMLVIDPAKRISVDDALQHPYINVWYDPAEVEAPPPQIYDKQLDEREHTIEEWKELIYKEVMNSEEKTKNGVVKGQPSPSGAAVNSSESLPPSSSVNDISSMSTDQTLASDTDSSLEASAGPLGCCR
Sequence of Serine/threonine-protein kinase B-raf (Homo sapiens), P15056 [V600E] (P15056 whole entry V600E): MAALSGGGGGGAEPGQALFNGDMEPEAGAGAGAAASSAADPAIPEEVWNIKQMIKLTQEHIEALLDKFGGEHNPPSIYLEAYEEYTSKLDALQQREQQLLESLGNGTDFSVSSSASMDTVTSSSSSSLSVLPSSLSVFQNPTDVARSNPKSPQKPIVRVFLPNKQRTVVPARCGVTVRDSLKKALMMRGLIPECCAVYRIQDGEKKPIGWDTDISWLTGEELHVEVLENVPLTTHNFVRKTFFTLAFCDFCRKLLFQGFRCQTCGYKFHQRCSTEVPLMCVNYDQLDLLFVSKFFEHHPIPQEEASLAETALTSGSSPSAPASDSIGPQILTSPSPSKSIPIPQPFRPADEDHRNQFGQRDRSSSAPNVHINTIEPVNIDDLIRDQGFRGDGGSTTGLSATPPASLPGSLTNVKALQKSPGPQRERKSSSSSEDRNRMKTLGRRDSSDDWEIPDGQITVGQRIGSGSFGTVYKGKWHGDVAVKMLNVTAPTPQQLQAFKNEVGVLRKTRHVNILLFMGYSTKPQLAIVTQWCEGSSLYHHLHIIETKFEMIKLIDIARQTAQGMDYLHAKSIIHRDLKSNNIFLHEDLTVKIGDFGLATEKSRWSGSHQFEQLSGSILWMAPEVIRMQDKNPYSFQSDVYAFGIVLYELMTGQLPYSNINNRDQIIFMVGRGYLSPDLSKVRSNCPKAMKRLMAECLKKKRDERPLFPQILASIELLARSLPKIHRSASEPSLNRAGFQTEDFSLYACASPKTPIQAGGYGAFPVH

CS(=O)(=O)c1nccc(-c2c(-c3cccc(OCc4ccccc4)c3)nc3sccn23)n1
IC50 (MOLT-4): 1.02 µM | inhibition at 10 µM (HCC 2998): 67.6% | IC50 (U-251): 6.08 µM | IC50 (WI-38): 8.54 µM | IC50 (OVCAR-4): 3.78 µM | IC50 (NCI-H522): 4.91 µM | inhibition [1]: 96.1% | inhibition [2]: 62.1% | IC50 [3]: 0.0152 µM | inhibition at 10 µM (SK-MEL-5): 99.9% | IC50 [4]: 5.2 µM | inhibition [5]: 66% | Ratio IC50 (Homo sapiens): 341 | inhibition at 10 µM (MDA-MB-468): 165% | IC50 [6]: 0.0033 µM | inhibition [7]: 2.75%
